≈ marks a conversion by molar mass, not a printed value. Like-named read-outs stand apart in the source and are kept apart here.
Columns and labels:
Format in all cases: cell-based
[1] = system: Staphylococcus aureus ATCC 33591 (MRSA); experiment: MIC assay against gram positive and antibiotic-resistant S. aureus; conditions: Staphylococcus aureus ATCC 33591, MRSA; read-out: MIC
Protocol: (§1) The MICs of vancomycin and linezolid were determined as quality controls and the MIC values of each strain met the acceptance criteria based on PDS historical reference data.
(§2) The direct colony suspension method was used to prepare inoculated broth. Isolated colonies were taken from an 18-24 h culture plate. Optical density measurements (OD620 nm) were used to estimate the bacterial density. The test article, compound 3, and reference control stock solutions were prepared in 100% DMSO as 50× stock solutions. The 50× stock solutions were diluted by 2-fold serial titrations with 100% DMSO for a total of 11 concentrations. A 4 μL aliquot of each dilution was added to 196 μL of cation-adjusted Mueller Hinton Broth II medium seeded with the organism in wells of a 96 well plate. The final vehicle concentration was two percent (2%) in all assay wells. The final bacterial count was 2 to 8×10^5 CFU/mL. The final compound 3 concentration range was 16 to 0.016 μg/mL. Each test substance dilution was evaluated in duplicate on one test occasion. Vehicle-control and reference controls were used as blank and positive controls, respectively. Plates were incubated at 35-37° C. for 18 h. The test plates were visually examined and each well was visually scored for growth or complete inhibition of growth. The MIC value was recorded.

[2] = system: Staphylococcus aureus BAA-1556 (MRSA); experiment: as above; conditions: Staphylococcus aureus BAA-1556, MRSA; read-out: MIC
Protocol: as §1, §2

Candida glabrata CG3 = experiment: Anti-fungal MIC assay; conditions: Nakaseomyces glabratus
Summary of the method: (§3)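 First, DMSO stocks (6400 μg/ml, 100× highest test level) were diluted to 2× in RPMI-1640 with MOPS at pH 7.0. Trays were then held at 35° C without agitation.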

[3] = system: Aspergillus fumigatus AF293; experiment: Anti-fungal MIC assay
Summary of the method: as §3

Candida auris DI17-47 = experiment: Anti-fungal MIC assay; conditions: Candidozyma auris
Summary of the method: as §3

[4] = system: Blastomyces dermatitidis BD2; experiment: Anti-fungal MIC assay
Summary of the method: as §3

Candida auris DI17-46 = experiment: Anti-fungal MIC assay; conditions: Candidozyma auris
Summary of the method: as §3

[5] = system: Cryptococcus neoformans H99; experiment: Anti-fungal MIC assay
Summary of the method: as §3

[6] = system: Cryptococcus neoformans USC 1597; experiment: Anti-fungal MIC assay
Summary of the method: as §3

S. aureus ATCC 27660 = experiment: MIC assay against gram positive S. aureus; conditions: Staphylococcus aureus, ATCC27660
Protocol: (§4) Then the compound stocks were serially 2-fold diluted in a v-bottom 96-well plate to make 100-fold working solutions. One day before the test, −80° C. glycerol stock of S. aureus strains were streaked on cation-adjusted Mueller-Hinton agar (CAMHA) plates. On the day of test, fresh bacterial colonies were suspended into sterile saline to an OD600 nm of ˜0.1 (equivalent to 0.5 McFarland). The bacterial suspension was firstly 20-fold followed by 50-fold diluted in cation-adjusted Mueller-Hinton broth (CAMHB) plates to 1×10^6 CFU/PO. 198 ul of the inoculum was added into the round-bottom 96-well plates prefilled with 2 ul of 100-fold compound working solutions. After incubating at 35 +/−2° C. in ambient atmosphere for 18-24 h, MIC was recorded as the lowest concentration under which no visible bacterial growth was observed.

S. aureus ATCC 43300 = experiment: MIC assay against gram positive S. aureus; conditions: Staphylococcus aureus, ATCC43300
Protocol: as §4

[7] = Anti-fungal MIC assay, summary of second round; conditions: read-out: Isolate MIC (100%); range over isolates of the second round of testing
Protocol: (§5) The first round of testing included Candida parapsilosis, Candida krusei, Paecilomyces variotii, Candida albicans, Aspergillus fumigatus, and Blastomyces dermatitidis. […] The second round of testing included Candida parapsilosis, Candida krusei, Candida albicans, Candida auris, Candida glabrata, Candida guilliermondii, and Cryptococcus neoformans.
(§6) Stock solutions of the investigational agent were prepared at concentrations 100-times the highest concentration to be tested (6400 μg/ml) using dimethyl sulfoxide. Aliquots of the stock solutions were dispensed into polystyrene vials and stored at −20° C.
(§7) The synthetic medium RPMI-1640 (with glutamine, without bicarbonate, and with phenol red) was used. The RPMI was buffered to a pH of 7.0+0.1 at 25° C. with 0.165M MOPS (3-[N-morpholino] propanesulfonic acid). Sterile U-shaped 96-well cell culture plates were used to perform the MIC assays. […]
(§8) Fungal isolates were grown on Sabouraud dextrose agar (yeasts) or potato flake agar (filamentous fungi) and cells were collected after an appropriate period of growth for each species being evaluated (e.g., 48-72 hours for yeasts and 7 days for filamentous fungi). The fungi were suspended in sterile distilled water, and the densities of the fungal suspension were read using a spectrophotometer and adjusted to an appropriate optical density specific for each fungal species. […]

[8] = system: Candida parapsilosis, Candida krusei, Candida albicans, Candida auris, Candida glabrata, Candida guilliermondii, and Cryptococcus neoformans; experiment: Anti-fungal MIC assay, summary of second round; conditions: Candida strains
Protocol: as §5, §6, §7, §8

[9] = Anti-fungal MIC assay, summary of first round; conditions: read-out: Isolate MIC (100%); range over isolates of the first round of testing
Protocol: as §5, §6, §7, §8

[10] = read-out: MIC, 50% growth inhibition
[11] = read-out: MIC, 100% growth inhibition

For `N=C(N)c1ccc(CC[C@H]2CCC[C@@H](CCc3ccc(C(=N)N)cc3)C2)cc1` [Compound 3, 4,4′-(2,2′-((1R,3S)-cyclohexane-1,3-diyl)bis(ethane-2,1-diyl))dibenzimidamide], the MIC [1] was 0.125 µg/mL (≈ 0.332 µM), the MIC [2] was 0.25 µg/mL (≈ 0.664 µM) and the MIC (Candida glabrata CG3; [10]) was 0.5 µg/mL (≈ 1.33 µM). For the same molecule, the MIC (Candida glabrata CG3; [11]) was 1 µg/mL (≈ 2.66 µM), the MIC [3, 10] was 16 µg/mL (≈ 42.5 µM) and the MIC [3, 11] was 16 µg/mL (≈ 42.5 µM). The MIC (Candida auris DI17-47; DI1747, read-out: MIC, 50% growth inhibition) was 1 µg/mL (≈ 2.66 µM), the MIC (Candida auris DI17-47; DI1747, read-out: MIC, 100% growth inhibition) was 4 µg/mL (≈ 10.6 µM) and the MIC [4, 10] was 2 µg/mL (≈ 5.31 µM). It also gave an MIC [4, 11] of 4 µg/mL (≈ 10.6 µM), an MIC (Candida auris DI17-46; DI1746, read-out: MIC, 50% growth inhibition) of 2 µg/mL (≈ 5.31 µM) and an MIC (Candida auris DI17-46; DI1746, read-out: MIC, 100% growth inhibition) of 4 µg/mL (≈ 10.6 µM). It also gave an MIC [5, 10] of 0.5 µg/mL (≈ 1.33 µM), an MIC [5, 11] of 0.5 µg/mL (≈ 1.33 µM) and an MIC ([6]; USC1597, read-out: MIC, 50% growth inhibition) of 0.5 µg/mL (≈ 1.33 µM). The MIC ([6]; USC1597, read-out: MIC, 100% growth inhibition) was 0.5 µg/mL (≈ 1.33 µM), the MIC (S. aureus ATCC 27660) was 0.5 µg/mL (≈ 1.33 µM) and the MIC (S. aureus ATCC 43300) was 0.5 µg/mL (≈ 1.33 µM). For the same molecule, the MIC [7] was 0.5 to 8 µg/mL (≈ 1.33 to 21.2 µM), the “anti-fungal effectiveness compared to fluconazole” value [8] was “more effective in killing several Candida strains of interest that are not affected by fluconazole” and the MIC [9] was 1 to 64 µg/mL (≈ 2.66 to 170 µM).

From patent US20230391727A1, “ANALOGUES OF PENTAMIDINE AND METHODS FOR TREATING INFECTIONS” (Auransa Inc., priority 2020, published 2023)
